Experiments:
Test in all cases: relative viability (nuclei count vs DMSO), 5 days (fraction); higher = more cells survive
Idelalisib + Navitoclax = compound: CC[C@H](Nc1ncnc2[nH]cnc12)c1nc2cccc(F)c2c(=O)n1-c1ccccc1 [Idelalisib] + CC1(C)CCC(c2ccc(Cl)cc2)=C(CN2CCN(c3ccc(C(=O)NS(=O)(=O)c4ccc(N[C@H](CCN5CCOCC5)CSc5ccccc5)c(S(=O)(=O)C(F)(F)F)c4)cc3)CC2)C1 [Navitoclax] (partner 0.5 µM)
Method in brief: (§1)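 Lung cancer cell lines were pin-tool dosed in 1536-well plates on the day after seeding, with either a lone drug or a fixed anchor-drug dose plus five library-drug doses (not always all listed) in √10 steps. Nuclei were counted on 4× images after 5 days. Relative viability is the ratio of treated-well to vehicle-well nuclei counts, with each value a median of duplicate plates.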

Idelalisib + Vorinostat = compound: CC[C@H](Nc1ncnc2[nH]cnc12)c1nc2cccc(F)c2c(=O)n1-c1ccccc1 [Idelalisib] + O=C(CCCCCCC(=O)Nc1ccccc1)NO [Vorinostat] (partner 1 µM)
Method in brief: as §1

Pemetrexed + Foretinib = compound: Nc1nc2[nH]cc(CCc3ccc(C(=O)N[C@@H](CCC(=O)O)C(=O)O)cc3)c2c(=O)[nH]1 [Pemetrexed] + COc1cc2c(Oc3ccc(NC(=O)C4(C(=O)Nc5ccc(F)cc5)CC4)cc3F)ccnc2cc1OCCCN1CCOCC1 [Foretinib] (partner 0.25 µM)
Method in brief: as §1

Pemetrexed + Phenformin = compound: Nc1nc2[nH]cc(CCc3ccc(C(=O)N[C@@H](CCC(=O)O)C(=O)O)cc3)c2c(=O)[nH]1 [Pemetrexed] + N=C(N)NC(=N)NCCc1ccccc1 [Phenformin] (partner 250 µM)
Method in brief: as §1

Cell Line	relative viability (Idelalisib + Navitoclax; first compound 0.04 µM)	relative viability (Idelalisib + Navitoclax; first compound 0.1265 µM)	relative viability (Idelalisib + Navitoclax; first compound 0.4 µM)	relative viability (Idelalisib + Navitoclax; first compound 1.265 µM)	relative viability (Idelalisib + Navitoclax; first compound 4 µM)	relative viability (Idelalisib + Vorinostat; first compound 0.04 µM)	relative viability (Idelalisib + Vorinostat; first compound 0.1265 µM)	relative viability (Idelalisib + Vorinostat; first compound 0.4 µM)	relative viability (Idelalisib + Vorinostat; first compound 1.265 µM)	relative viability (Idelalisib + Vorinostat; first compound 4 µM)	relative viability (Pemetrexed + Foretinib; first compound 0.002 µM)	relative viability (Pemetrexed + Foretinib; first compound 0.006325 µM)	relative viability (Pemetrexed + Foretinib; first compound 0.02 µM)	relative viability (Pemetrexed + Foretinib; first compound 0.06325 µM)	relative viability (Pemetrexed + Foretinib; first compound 0.2 µM)	relative viability (Pemetrexed + Phenformin; first compound 0.002 µM)	relative viability (Pemetrexed + Phenformin; first compound 0.006325 µM)	relative viability (Pemetrexed + Phenformin; first compound 0.02 µM)	relative viability (Pemetrexed + Phenformin; first compound 0.06325 µM)	relative viability (Pemetrexed + Phenformin; first compound 0.2 µM)
NCI-H596	1.18	0.931	0.881	0.973	0.892	0.622	0.595	0.511	0.567	0.415	0.765	0.83	0.938	0.786	0.581	0.766	0.702	0.775	0.751	0.565
NCI-H1975	1.1	1.08	1.12	1.06	0.692	0.693	0.776	0.681	0.671	0.588	0.899	0.914	1.02	0.825	0.401	0.331	0.39	0.413	0.32	0.237
NCI-H2170	0.665	0.613	0.524	0.598	0.509	0.732	0.805	0.761	0.716	0.669	0.918	1.02	0.999	1	1.02	0.449	0.443	0.424	0.42	0.405
NCI-H1666	0.892	0.928	0.835	0.804	0.69	1.01	1.02	0.962	1.05	1.08	0.942	0.996	0.929	0.953	0.832	0.577	0.55	0.625	0.551	0.537
PC-3 [JPC-3]	0.912	0.892	0.795	0.668	0.679	1.04	0.952	0.841	0.86	0.747	0.93	1.05	1.02	1.05	1.01	0.476	0.517	0.537	0.486	0.478
NCI-H1755	0.964	0.959	0.923	0.836	0.687	0.884	0.748	0.751	0.634	0.723	0.871	0.925	0.94	0.923	0.849	0.594	0.409	0.647	0.627	0.507
RERF-LC-KJ	0.922	0.951	0.884	0.792	0.638	0.826	0.754	0.725	0.697	0.512	0.84	0.84	0.866	0.857	0.749	0.435	0.439	0.43	0.411	0.349
NCI-H647	1.17	1.1	0.981	0.837	0.745	0.686	0.435	0.546	0.247	0.141	0.946	1.07	1.33	0.989	0.386	0.457	0.445	0.598	0.482	0.236
BEN	0.0556	0.0685	0.0581	0.0746	0.0521	0.531	0.53	0.552	0.59	0.514	0.739	0.739	0.83	0.615	0.726	0.288	0.283	0.255	0.272	0.275
201T	1.17	1.13	1.25	1.24	1.1	1.01	0.982	0.874	0.997	0.755	1.1	1.11	1.19	0.69	0.316	0.428	0.494	0.479	0.426	0.403
LC-2-ad	0.479	0.4	0.395	0.417	0.306	0.798	0.702	0.683	0.791	0.703	0.818	0.946	0.526	0.296	0.284	0.518	0.567	0.492	0.335	0.374
LCLC-97TM1	0.468	0.453		0.335	0.337	0.802	0.871	0.446	0.868	0.685	1.01	0.81	0.886	0.872	0.886	0.432	0.392	0.466	0.44	0.396
NCI-H1915	0.797	0.772	0.812	0.78	0.764	0.567	0.534	0.498	0.503	0.448	1.04	1.05	1.11	1.07	1.11	0.358	0.39	0.373	0.357	0.381
NCI-H3122	1.07	1.04	1.02	0.995	0.961	1.01	1.07	0.933	1.02	0.579	0.931	0.972	0.973	0.973	0.72	0.419	0.37	0.374	0.336	0.205
NCI-H1650	1.15	1.39	1.08	1.15	0.748	0.513	0.604	0.58	0.587	0.614	0.985	0.988	1.17	0.888	0.402	0.415	0.39	0.408	0.309	0.231
NCI-H1993	0.844	0.971	0.762	0.912	0.75	0.983	1.09	0.516	0.921	0.487	0.806	0.838	0.74	0.774	0.811	0.445	0.455	0.493	0.532	0.489
NCI-H2405	1.01	0.759	0.716	0.766	0.622	1.2	1.05	0.908	1.04	1.06	1.06	1.03	1.09	1.03	1.08	0.37	0.362	0.423	0.432	0.392

Source: the supplement of paper PMC10307832
